Data on 16 substances can be found in article PMC7160673, “A Degenerate Peptide Library Approach to Reveal Sequence Determinants of Methyllysine-Driven Protein Interactions” (Frontiers in Cell and Developmental Biology, 2020).

What all share (format): binding
Experiment [1] deals with 53BP1 TTD. The experiment in a line: Histone peptide microarray, 53BP1 TTD. Conditions: 53BP1 TTD hits, average signal per peptide. As to the method:
(§1) Peptide microarrays were fabricated using an Aushon 2470 microarrayer and used as described ([Cornett et al., 2017]) with the following modifications. Protein and antibody hybridization steps were performed in buffer containing 25 mM HEPES pH 7.5, 100 mM NaCl, 0.5% BSA (w/v), and 0.1% NP-40. Slides were washed 3 × 5 min in PBS supplemented with 0.1% Tween-20 between each hybridization step. Antibodies used were primary anti-GST (Sigma #7781, 1:2,000 dilution) and an AlexaFluor 647-labeled secondary antibody (Life Technologies A-21245, 1:5,000 dilution). […] Full lists of peptides queried by array analysis are in Supplementary Table S2.

For experiment [2], the system named is Millipore #07-449, anti-H3K27me3. The experiment in a line: Histone peptide microarray, Millipore 07-449. To be noted: Millipore 07-449 (anti-H3K27me3) hits, average signal per peptide.
Experiment [3] relates to CST 9733 (anti-H3K27me3). The experiment in a line: Histone peptide microarray, CST 9733. To be noted: histone peptide array signal normalized to the highest peptide average per subarray, hits; CST 9733 LOT:14 dilution 1:5,000. How it is done: as §1
In experiment [4] the test system is Active Motif #39161, anti-H3K9me3. Put plainly: Histone peptide microarray, Active Motif 39161. To be noted: Active Motif 39161 (anti-H3K9me3) hits.

For the substance “ACitTK(Me3)QTARKSTGGKAPRKQL-K(Biot)-NH2 [H3.1Cit2K4me3]”, the “Avg Signal” value in experiment [1] was 0.1746; in experiment [2], 0.01263; in experiment [3], 0.00216; in experiment [4] it was 0.009245.
On to “AR(Me2a)TK(Me3)QTARK(Ac)pSTGGK(Ac)APRK(Ac)QL-K(Biot)-NH2 [H3.1R2me2aK4me3K9acS10pK14acK18ac]”, for which the “Avg Signal” value in experiment [1] was 0.02248; in experiment [2], 0.0008355; in experiment [3], 0.001633; in experiment [4], 0.01104.
The like results for “AR(Me2a)TK(Me3)QTARKSTGGKAPRKQL-K(Biot)-NH2 [H3.1R2me2aK4me3]” were, in that order, 0.09687, 0.02156, 0.001321 and 0.01254.
For the substance “AR(Me2s)TK(Me3)QTARK(Ac)STGGK(Ac)APRK(Ac)QL-K(Biot)-NH2 [H3.1R2me2sK4me3K9acK14acK18ac]”, the “Avg Signal” value in experiment [1] is recorded as 0.134; in experiment [2], 0.02279; in experiment [3], 0.0007823; in experiment [4], 0.02558.
For the substance “AR(Me2s)TK(Me3)QTARKSTGGKAPRKQL-K(Biot)-NH2 [H3.1R2me2sK4me3]”, the “Avg Signal” value in experiment [1] worked out at 0.1898; in experiment [2], 0.0135; in experiment [3] it was 0.00218; in experiment [4], 0.01035.
“ARTK(Ac)QTARK(Ac)STGGK(Ac)APRK(Ac)QL-K(Biot)-NH2 [H3.1K4acK9acK14acK18ac]”: the entries for the “Avg Signal” value in experiment [1], in experiment [3] and in experiment [4] were 0.1399, 0.0003418 and 0.05366, respectively.
Regarding “ARTK(Me3)QTARK(Ac)STGGK(Ac)APRK(Ac)QL-K(Biot)-NH2 [H3.1K4me3K9acK14acK18ac]”, the “Avg Signal” value in experiment [1] is reported as 0.09733; in experiment [2], 0.03443; in experiment [3] it was 0.009625; in experiment [4] it was 0.004819.
As for “ARTK(Me3)QTARK(Ac)STGGK(Ac)APRKQL-K(Biot)-NH2 [H3.1K4me3K9acK14ac]”, the “Avg Signal” value in experiment [1] is given as 0.06229; in experiment [2] it was 0.05366; in experiment [3], 0.005042; in experiment [4] it was 0.01712.
Regarding “ARTK(Me3)QTARK(Ac)STGGKAPRK(Ac)QL-K(Biot)-NH2 [H3.1K4me3K9acK18ac]”, the “Avg Signal” value turned out to be 0.0915 in experiment [1], 0.05409 in experiment [2], 0.009868 in experiment [3] and 0.01916 in experiment [4].
With “ARTK(Me3)QTARK(Ac)STGGKAPRKQL-K(Biot)-NH2 [H3.1K4me3K9ac]”, the “Avg Signal” value is given as 0.2378 in experiment [1], 0.05697 in experiment [2], 0.008895 in experiment [3] and 0.02897 in experiment [4].
With “ARTK(Me3)QTARK(Ac)pSTGGKAPRKQL-K(Biot)-NH2 [H3.1K4me3K9acS10p]”, the “Avg Signal” value in experiment [1] was determined as 0.1299; in experiment [2], 0.007736; in experiment [3], 0.004944; in experiment [4] it was 0.01343.
Consider “Ac-GKGGAKRHRKVLRDNIQ-Peg-Biot [H4(11-27)]”, for which the “Avg Signal” value in experiment [1] was found to be 0.128; in experiment [3], 0.0004161; in experiment [4], 0.04504.
On to “Ac-SGCitGK(Ac)QGGKARAKAKTR-Peg-Biot [Peptide H2ACit3K5ac]”, for which the “Avg Signal” value in experiment [1] stood at 0.009599; in experiment [3], 1.355e-5.
Consider “KSAPSTGGVK(Me3)KPHRYKPGT-G-K(Biot)-NH2 [yH3K36me3]”, for which the results for the “Avg Signal” value in experiment [1] and in experiment [3] were 0.1137 and 0.0003217, respectively.
For “PEPAK(Me2)SAPAPKKGSKKAVTKAQKK-Peg-Biot [Peptide H2BK5me2]”, the “Avg Signal” value in experiment [1] is 0.1922; in experiment [3], 0.0008674.
The like results for “SGRGK(Ac)QGGK(Ac)ARAK(Ac)AK(Ac)TR-Peg-Biot [H2AK5acK9acK13acK15ac(noN-ac)]” were, in that order, 0.2522 and 6.218e-5.
